Measurements from patent publication US11851440B2, “Modulators of eukaryotic initiation factor 2B, compositions and methods” (Denali Therapeutics Inc., priority 2017, dated 2023).

These compounds were tested on ISR pathway (ATF4 translation) (assay: ATF4 Nano Luciferase reporter integrated stress response (ISR) assay in H4 ATF4-NLuc cells). Conditions: Homo sapiens, H4 ATF4-NLuc (clone 17) cells; compound 30 minutes, then 50 um sodium arsenite for 6 hours; luminescence readout.

`O=C(COc1ccc(Cl)c(F)c1)NC12CC(n3cnc([C@H]4C[C@@H](OC(F)(F)F)C4)c3)(C1)C2` [Example 61, 2-(4-chloro-3-fluoro-phenoxy)-N-[3-[4-[3-cis-(trifluoromethoxy)cyclobutyl]imidazol-1-yl]-1-bicyclo[1.1.1]pentanyl]acetamide] gave an IC50 of 1.9 nM.

Same assay, conditions: Homo sapiens, read-out: Activity (IC50), H4 ATF4-NLuc (clone 17) cells; compound 30 minutes, then 50 um sodium arsenite for 6 hours; luminescence readout

`O=C(COc1ccc(Cl)c(F)c1)NC12CC(c3nnc(CO[C@H]4C[C@@H](OC(F)(F)F)C4)o3)(C1)C2` [Example 53] and `O=C(COc1ccc(Cl)c(F)c1)NC12CC(c3nnc(CCOC(F)(F)F)o3)(C1)C2` [Example 55] cannot be ordered by IC50: less than 1000 nM for the first, less than 1000 nM for the second.

First: O=C(CCc1ccc(Cl)cn1)NC12CC(c3nnc([C@H]4C[C@@H](OC(F)(F)F)C4)o3)(C1)C2 [Example 56]
Second: O=C(COc1ccc(F)cc1)NC12CC(c3nnc([C@H]4C[C@@H](OC(F)(F)F)C4)o3)(C1)C2 [Example 71, 2-(4-fluorophenoxy)-N-[3-[5-[3-cis-(trifluoromethoxy)cyclobutyl]-1,3,4-oxadiazol-2-yl]-1-bicyclo[1.1.1]pentanyl]acetamide]
The IC50 of the first is higher: 1000 to 10000 nM for the first, less than 1000 nM for the second. The second is the more potent here.

Compared with `O=C(COc1ccc(Cl)c(F)c1)NC12CC(c3cn(C4CC(O)C4)nn3)(C1)C2` (centres unmarked) [Example 57], `O=C(COc1ccc(Cl)c(F)c1)NC12CC(c3cn([C@H]4C[C@H](OC(F)(F)F)C4)nn3)(C1)C2` [Example 64, 2-(4-chloro-3-fluoro-phenoxy)-N-[3-[1-[3-trans-(trifluoromethoxy)cyclobutyl]triazol-4-yl]-1-bicyclo[1.1.1]pentanyl]acetamide] is lower in IC50: 1000 to 10000 nM for the first, less than 1000 nM for the second.

`O=C(COc1ccc(Cl)c(F)c1)NC12CC(c3cn(Cc4ccccc4)nn3)(C1)C2` [Example 58] and `O=C(COc1ccc(Cl)c(F)c1)NC12CC(c3cn([C@H]4C[C@@H](OC(F)(F)F)C4)nn3)(C1)C2` [Example 65, 2-(4-chloro-3-fluoro-phenoxy)-N-[3-[1-[3-cis-(trifluoromethoxy)cyclobutyl]triazol-4-yl]-1-bicyclo[1.1.1]pentanyl]acetamide] cannot be ordered by IC50: less than 1000 nM for the first, less than 1000 nM for the second.

`O=C(COc1ccc(Cl)c(F)c1)NC12CC(n3cnc([C@H]4C[C@@H](OC(F)(F)F)C4)c3)(C1)C2` [Example 61, 2-(4-chloro-3-fluoro-phenoxy)-N-[3-[4-[3-cis-(trifluoromethoxy)cyclobutyl]imidazol-1-yl]-1-bicyclo[1.1.1]pentanyl]acetamide] and `O=C(COc1ccc(Cl)c(F)c1)NC12CC(n3cnc([C@H]4C[C@H](OC(F)(F)F)C4)c3)(C1)C2` [Example 62, 2-(4-chloro-3-fluoro-phenoxy)-N-[3-[4-[3-trans-(trifluoromethoxy)cyclobutyl]imidazol-1-yl]-1-bicyclo[1.1.1]pentanyl]acetamide] cannot be ordered by IC50: less than 1000 nM for the first, less than 1000 nM for the second.

`O=C(CO[C@H]1C[C@@H](OC(F)(F)F)C1)NC12CC(n3cnc([C@H]4C[C@@H](OC(F)(F)F)C4)c3)(C1)C2` [Example 63, 2-[3-cis-(trifluoromethoxy)cyclobutoxy]-N-[3-[4-[3-cis-(trifluoromethoxy)cyclobutyl]imidazol-1-yl]-1-bicyclo[1.1.1]pentanyl]acetamide] and `O=C(COc1ccc(Cl)cc1)NC12CC(n3cnc([C@H]4C[C@@H](OC(F)(F)F)C4)c3)(C1)C2` [Example 68, 2-(4-chlorophenoxy)-N-[3-[4-[3-cis-(trifluoromethoxy)cyclobutyl]imidazol-1-yl]-1-bicyclo[1.1.1]pentanyl]acetamide] cannot be ordered by IC50: less than 1000 nM for the first, less than 1000 nM for the second.

`O=C(COc1ccc(Cl)c(F)c1)NC12CC(n3cnc(C4CN(CC(F)(F)F)C4)c3)(C1)C2` [Example 67, 2-(4-chloro-3-fluoro-phenoxy)-N-[3-[4-[1-(2,2,2-trifluoroethyl)azetidin-3-yl]imidazol-1-yl]-1-bicyclo[1.1.1]pentanyl]acetamide] and `O=C(COc1ccc(Cl)cc1)NC12CC(n3cnc([C@H]4C[C@H](OC(F)(F)F)C4)c3)(C1)C2` [Example 69, 2-(4-chlorophenoxy)-N-[3-[4-[3-trans-(trifluoromethoxy)cyclobutyl]imidazol-1-yl]-1-bicyclo[1.1.1]pentanyl]acetamide] cannot be ordered by IC50: less than 1000 nM for the first, less than 1000 nM for the second.

`O=C(COc1ccc(F)cc1)NC12CC(c3nnc([C@H]4C[C@H](OC(F)(F)F)C4)o3)(C1)C2` [Example 72, 2-(4-fluorophenoxy)-N-[3-[5-[3-trans-(trifluoromethoxy)cyclobutyl]-1,3,4-oxadiazol-2-yl]-1-bicyclo[1.1.1]pentanyl]acetamide] and `C#CCN(C(=O)COc1ccc(Cl)cc1)C12CC(c3nnc([C@H]4C[C@@H](OC(F)(F)F)C4)o3)(C1)C2` [Example 74, 2-(4-chlorophenoxy)-N-prop-2-ynyl-N-[1-[5-[3-cis-(trifluoromethoxy)cyclobutyl]-1,3,4-oxadiazol-2-yl]-3-bicyclo[1.1.1]pentanyl]acetamide] cannot be ordered by IC50: less than 1000 nM for the first, less than 1000 nM for the second.

First: O=C(CO[C@H]1C[C@@H](OC(F)(F)F)C1)NC12CC(c3nnc(-c4cncc(F)c4)o3)(C1)C2 [Example 73, N-[1-[5-(5-fluoro-3-pyridyl)-1,3,4-oxadiazol-2-yl]-3-bicyclo[1.1.1]pentanyl]-2-[3-cis-(trifluoromethoxy)cyclobutoxy]acetamide]
Second: O=C(CO[C@H]1C[C@@H](OC(F)(F)F)C1)NC12CC(c3cn(-c4ccc(Cl)c(F)c4)nn3)(C1)C2 [Example 77, N-[3-[1-(4-chloro-3-fluoro-phenyl)triazol-4-yl]-1-bicyclo[1.1.1]pentanyl]-2-[3-cis-(trifluoromethoxy)cyclobutoxy]acetamide]
The IC50 of the first is higher: 1000 to 10000 nM for the first, less than 1000 nM for the second.

`O=C(CC[C@H]1C[C@@H](OC(F)(F)F)C1)NC12CC(c3nnc(C4CC(OC(F)(F)F)C4)o3)(C1)C2` (stereo partly drawn) [Example 75, 3-[3-cis-(trifluoromethoxy)cyclobutyl]-N-[3-[5-[3-cis-(trifluoromethoxy)cyclobutyl]-1,3,4-oxadiazol-2-yl]-1-bicyclo[1.1.1]pentanyl]propanamide] and `O=C(COC1CC2C(C1)C2(F)F)NC12CC(c3nnc([C@H]4C[C@@H](OC(F)(F)F)C4)o3)(C1)C2` (stereo partly drawn) [Example 83, 2-[(6,6-difluoro-3-bicyclo[3.1.0]hexanyl)oxy]-N-[3-[5-[3-cis-(trifluoromethoxy)cyclobutyl]-1,3,4-oxadiazol-2-yl]-1-bicyclo[1.1.1]pentanyl]acetamide] fall in the same range of IC50: 1000 to 10000 nM for the first, 1000 to 10000 nM for the second.

`O=C(NC12CC(c3nnc([C@H]4C[C@@H](OC(F)(F)F)C4)o3)(C1)C2)C1Cc2cc(Cl)ccc2O1` (stereo partly drawn) [Example 76, 5-chloro-N-[3-[5-[3-cis-(trifluoromethoxy)cyclobutyl]-1,3,4-oxadiazol-2-yl]-1-bicyclo[1.1.1]pentanyl]-2,3-dihydrobenzofuran-2-carboxamide] and `O=C(CO[C@H]1C[C@@H](OC(F)(F)F)C1)NC12CC(c3cnn(-c4ccc(Cl)c(F)c4)n3)(C1)C2` [Example 78, N-[3-[2-(4-chloro-3-fluoro-phenyl)triazol-4-yl]-1-bicyclo[1.1.1]pentanyl]-2-[3-cis-(trifluoromethoxy)cyclobutoxy]acetamide] cannot be ordered by IC50: less than 1000 nM for the first, less than 1000 nM for the second.

Compound `O=C(COc1ccc(Cl)c(F)c1)NC12CC(c3cnn([C@H]4C[C@@H](OC(F)(F)F)C4)n3)(C1)C2` [Example 79, 2-(4-chloro-3-fluoro-phenoxy)-N-[3-[2-[3-cis-(trifluoromethoxy)cyclobutyl]triazol-4-yl]-1-bicyclo[1.1.1]pentanyl]acetamide] has an IC50 of less than 1000 nM.

Same assay, conditions: read-out: Activity (IC50); H4 ATF4-NLuc (clone 17) cells; compound 30 minutes, then 50 um sodium arsenite for 6 hours; luminescence readout

First: O=C(COc1ccc(Cl)c(F)c1)NC12CC(C3CN(C4CCC4)C(=O)O3)(C1)C2 (centres unmarked) [Example 59]
Second: O=C(COc1ccc(Cl)c(F)c1)NC12CC(C3CN(CC4CCC4)C(=O)O3)(C1)C2 (centres unmarked) [Example 60]
The IC50 of the first is higher: 1000 to 10000 nM for the first, less than 1000 nM for the second.
